Data published in PubChem BioAssay AID179 (DTP/NCI, 2004).
“And” between values parts separate entries of the source, which are not always exact repeats. Equal values may be shown once. The source made the active and inactive calls.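 Rule for the calls: active = compounds giving half or more protection of infected cells from virus-caused growth loss, again on retest; inactive = the rest.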

Test system: CEM cells HIV-1 protection, formazan growth assay
Experiment: NCI AIDS Antiviral Assay
Conditions: for IC50: measured here: growth of uninfected CEM cells
In short: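 Steps: treat uninfected and HIV-1-infected human CEM cells at five drug levels; quantify growth by soluble formazan; retest any compound reaching 50% protection; classify actives from the retest.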

What does the source list for `O=C(O)Cc1cccc2c(=O)c3cccc([N+](=O)[O-])c3[nH]c12`?
EC50: > 200 µM; IC50: 102 µM

`CCC1([N+](=O)[O-])CN(N=O)C1` was tested. Which EC50 did it give?
The EC50 was over 200 µM.

And the IC50?
Its IC50 is over 200 µM.

For `C[C@H]1C=C2[C@@H]3CC(C)(C(=O)O)CC[C@]3(C)CC[C@]2(C)[C@]2(C)CC[C@H]3C(C)(C)[C@@H](OC(=O)c4cccc5c(=O)c6ccccc6[nH]c45)CC[C@]3(C)[C@@H]12` (stereo partly specified), which EC50 is on record?
Its EC50 is over 100 µM.

What about the IC50 of the same compound?
The IC50 was 35.5 µM.

Which outcome does the source give for `C/C=C/C(=O)[C@@H](O)C(C)C` here?
Its outcome is “inactive”.

`Cc1cccc(C2OC(=O)c3c2ccc2ccccc32)c1` (stereo unspecified) was tested. Which outcome did it give?
The outcome was “inactive”.

How did the EC50 turn out when `C1CN2C(=N1)N1CCN=C1N1CCN=C21` was run?
The EC50 was over 174 µM.

What about the IC50 of the same compound?
The IC50 was over 174 µM.

`CC1CCC2(CO)C(CO)=CCCC2[C@@]1(C)CC/C(=C/CO)CO` (stereo partly specified) was tested. Which outcome did it give?
Its outcome is “inactive”.

With `CCOC(=O)c1nc2c(OC)nn(O)cc-2c1[N+](=O)[O-]` as the compound, how does the EC50 read?
Its EC50 is over 457 µM.

And the IC50?
Its IC50 is 5.75 µM.

How did the EC50 turn out when `O=C([O-])c1ccc2c(c1)-c1nc-2nc2[n-]c(nc3nc(nc4[n-]c(n1)c1ccc(C(=O)[O-])cc41)-c1ccc(C(=O)[O-])cc1-3)c1ccc(C(=O)[O-])cc21.[Gd+3].[K+]` was run?
Its EC50 is over 45.7 µM.

What about the IC50 of the same compound?
Its IC50 is over 45.7 µM.

What does the source list for `Oc1ccc2ccccc2c1-c1c(Nc2ccccc2)ccc2ccccc12`?
EC50: > 50.1 µM; IC50: 8.91 µM

Which results are given for `COc1ccc(-c2cc(=O)c3c(O)cc(O)c(-c4cc(-c5cc(=O)c6c(O)cc(OC)cc6o5)ccc4OC)c3o2)cc1`?
EC50: > 200 µM; IC50: 107 µM

For `Cc1nc2ccc(Br)cc2c(=O)n1-c1ccc(NC2OC(CO)C(O)C(O)C2O)cc1` (stereo unspecified), which EC50 is on record?
Its EC50 is over 200 µM.

And the IC50?
The IC50 was > 200 µM and 195 µM.

For `C=C(CCOC)CCC1CCCCC(=C)[C@H]1O` (stereo partly specified), which EC50 is on record?
The EC50 was over 200 µM.

And the IC50?
Its IC50 is over 200 µM.

What does the source list for `C=CCOc1ccc(C2C(C(=O)OC)C(=O)CC(O)(c3ccccc3)C2C(=O)OC)cc1OC` (stereo unspecified)?
EC50: > 100 µM; IC50: > 100 µM

With `C=CCc1oc(C)nc1CCCC` as the compound, how does the EC50 read?
The EC50 was over 200 µM.

What about the IC50 of the same compound?
Its IC50 is over 200 µM.

`COC(=O)C12C=CC(C(=O)OC)(CC1)n1c(=O)n(-c3ccccc3)c(=O)n12` was tested. Which EC50 did it give?
Its EC50 is over 200 µM.

What about the IC50 of the same compound?
Its IC50 is over 200 µM.

`C=CCOCC1C2CCC3(OCCO3)C21` (stereo unspecified) was tested. Which EC50 did it give?
Its EC50 is over 200 µM.

And the IC50?
Its IC50 is 148 µM.

For `COC(CN(C)C(=O)C(C)NC(=O)c1ccccc1)OC` (stereo unspecified), which outcome is on record?
Its outcome is “inactive”.

How did the EC50 turn out when `O=C(c1c(F)c(F)c(F)c(F)c1F)n1c(=O)[nH]c2ccccc21` was run?
The EC50 was over 200 µM.

And the IC50?
Its IC50 is 10.7 µM.

Which results are given for `COc1ccc(C2C(Cl)C(=O)N2n2cnc3ccccc3c2=O)cc1` (stereo unspecified)?
EC50: > 3.8 µM; IC50: > 3.8 µM

`CC1CC(OP(=O)(OCc2ccccc2)OCc2ccccc2)[C@@H](OCc2ccccc2)C(OCc2ccccc2)C1OCc1ccccc1` (stereo partly specified) was tested. Which EC50 did it give?
Its EC50 is over 100 µM.

And the IC50?
The IC50 was over 100 µM.

`O=C1O/C(=C(\Br)c2ccc([N+](=O)[O-])cc2)c2ccccc21` was tested. Which EC50 did it give?
Its EC50 is over 200 µM.

What about the IC50 of the same compound?
The IC50 was 16.6 µM.

What does the source list for `CC1(C)c2ccccc2-c2nc3ccccc3cc2C1N1CCOCC1` (stereo unspecified)?
EC50: > 200 µM; IC50: 41.7 µM

With `COc1cc(/C=C2/SC(c3ccccc3)N(c3cccc([N+](=O)[O-])c3)C2=O)cc(OC)c1OC` (stereo unspecified) as the compound, how does the EC50 read?
Its EC50 is over 200 µM.

What about the IC50 of the same compound?
Its IC50 is 107 µM.

For `Nn1c(-c2ccccc2)n[nH]c1=O`, which EC50 is on record?
Its EC50 is over 200 µM.

And the IC50?
Its IC50 is over 200 µM.

What does the source list for `C/C(=N\N)C(CN1CCOCC1)C(c1ccccc1)c1c(O)c2ccccc2oc1=O` (stereo unspecified)?
EC50: > 89.1 µM; IC50: 85.1 µM

What does the source list for `CC12CC3CC(C)(C1)CC(SCCCCCN=C(N)CSSCC(N)=NCCCCCSC14CC5CC(C)(CC(C)(C5)C1)C4)(C3)C2`?
EC50: > 200 µM; IC50: 26.9 µM

What does the source list for `O=c1c2cc([N+](=O)[O-])cnc2sn1-c1ccc(Br)cc1`?
EC50: > 200 µM; IC50: 63.1 µM

`C#CC(O)/C=C/C(O)CCCC(O)CC#CC(O)C#CC(O)CCCC(O)/C=C/CCCC(=O)CCCCCCCCCCCCCCCC(O)C(O)C#CC(=O)O` (stereo unspecified) was tested. Which EC50 did it give?
Its EC50 is 10 µM.

What about the IC50 of the same compound?
Its IC50 is 53.7 µM.

Which results are given for `C(=N\Nc1ccccc1)/c1nc2ccccc2nc1/C=N/Nc1ccccc1`?
EC50: > 5.5 µM; IC50: > 5.5 µM

`Cc1ccccc1N=Cc1ccc(N(CCC#N)S(=O)(=O)c2ccccc2)cc1` was tested. Which EC50 did it give?
Its EC50 is over 617 µM.

What about the IC50 of the same compound?
Its IC50 is 479 µM.

With `O=c1c2ncn(C3CCCCO3)c2n(-c2ccccc2)c(=S)n1-c1ccccc1` (stereo unspecified) as the compound, how does the outcome read?
Its outcome is “inactive”.

Which EC50 does the source give for `Cc1ccc(CCNC(=S)SCC(NC(=O)CCC(N)C(=O)O)C(=O)NCC(=O)O)cc1` (stereo unspecified) here?
Its EC50 is over 102 µM.

And the IC50?
Its IC50 is 8.71 µM.

What does the source list for `NCC1OC(OC2C(CO)OC(OC3C(O)C(N)CC(N)C3OC3OC(CN)C(O)C(O)C3N)C2O)C(N)C(O)C1O` (stereo unspecified) (tested in a mixture with another compound)?
EC50: > 135 µM; IC50: 9.33 µM

How did the outcome turn out when `COP(=O)(CC(=O)CCCCCOC1CCCCO1)OC` (stereo unspecified) was run?
The outcome was “inactive”.

For `O=S(Cc1cc2c(cc1Br)OCO2)c1ccccc1` (stereo unspecified), which EC50 is on record?
Its EC50 is over 39.8 µM.

And the IC50?
The IC50 was over 39.8 µM.

`COC(=S)NP(=O)(NC(=S)OC)NC(=S)OC` was tested. Which EC50 did it give?
Its EC50 is over 200 µM.

What about the IC50 of the same compound?
Its IC50 is over 200 µM.

Which EC50 does the source give for `O=c1oc2ccccc2c2nc3c([N+](=O)[O-])cccc3cc12` here?
The EC50 was over 200 µM.

What about the IC50 of the same compound?
The IC50 was 8.13 µM.

Which results are given for `O=C(OCC1CC(C2(O)CCCCC2)C(=O)O1)c1ccccc1` (stereo unspecified)?
EC50: > 200 µM; IC50: > 200 µM

With `ON=C(CC(O)(C(F)(F)Cl)C(F)(F)Cl)CC(O)(C(F)(F)Cl)C(F)(F)Cl` as the compound, how does the EC50 read?
Its EC50 is over 200 µM.

And the IC50?
Its IC50 is 8.71 µM.

Which results are given for `COc1cc2cc[n+](C)c(Cc3ccccc3)c2cc1OC`?
EC50: > 200 µM; IC50: 166 µM
